By pIC50 is commonly meant −log10 of the IC50, conventionally taken in molar units. Read a low pIC50 as a high IC50.

pIC50: −log10 of the molar value.

The text below walks through data of article PMC6272914, “Bio-Guided Isolation of Methanol-Soluble Metabolites of Common Spruce (Picea abies) Bark by-Products and Investigation of Their Dermo-Cosmetic Properties” (Molecules, 2016).

This assay concerns the target collagenase from Clostridium histolyticum. Nature of the assay: fluorogenic MMP2 substrate collagenase inhibition assay. The format is biochemical, Hathewaya histolytica.

For the compound `OC[C@H]1O[C@@H](Oc2cc(O)cc(/C=C/c3ccc(O)cc3)c2)[C@H](O)[C@@H](O)[C@@H]1O` [compound 6, E-piceid], the negative logarithm of the IC50 (pIC50) is 3.59.
For `CC(C)C[C@H](NP(=O)(O)O[C@@H]1O[C@@H](C)[C@H](O)[C@@H](O)[C@H]1O)C(=O)N[C@@H](Cc1c[nH]c2ccccc12)C(=O)O` [PRMD, phosphoramidon, reference compound], the pIC50 is 5.16.
`O=C1c2c(O)cc(O)cc2O[C@H](c2ccc(O)c(O[C@@H]3O[C@H](CO)[C@@H](O)[C@H](O)[C@H]3O)c2)[C@H]1O` [compound 9, taxifolin-3′-O-glucoside]: the pIC50 was 3.85.
The compound `OC[C@H]1O[C@@H](Oc2cc(O)cc(/C=C/c3ccc(O)c(O)c3)c2)[C@H](O)[C@@H](O)[C@@H]1O` [compound 8, E-astringin] had a pIC50 of 3.90. This pIC50 and that of the compound before are within 0.2 log units of each other.
In turn, `O=C1c2c(O)cc(O)cc2O[C@H](c2ccc(O)c(O)c2)[C@H]1O` [compound 4, taxifolin] showed a negative-log IC50 (pIC50) of 3.71.
